The subject of assay [1] is diet-induced obese male Long-Evans rats. In words: In vivo efficacy: food intake and body weight change in diet-induced obese rats. More on the design: species or system rat. To be noted: 10 mg/Kg, oral gavage once a day for 3 days. The protocol: Vehicle consisted of 10% acacia and 0.15% saccharin in water.
House animals individually in a temperature regulated room (24° C.) with a reverse 12 hour light/dark cycle (dark 10:00/22:00). Make water and food (Teklad 95217, Harlan, Wis.) available ad libitum. Dose compounds orally once a day before onset of dark for 3 days. Measure daily food intake and body weight change for the 3 day period. The compound of Example 25 produces an average body weight reduction of about 6 grams@10 mg/Kg versus vehicle control.

A further assay addresses T1, MCHR1 (Homo sapiens, UniProt Q99705).
T1 construct: The full-length cDNA for human MCHR1 is cloned; expressed in transfected cells; host or cells: AV12 cells previously transfected with Gα15; membranes
Put plainly: 125I-MCH competitive binding assay with clone 43 membranes (SPA). To be noted: 125I-MCH binding, Ki from IC50 by Cheng-Prusoff. The protocol:
The full-length cDNA for human MCHR1 is cloned from a human adult brain cDNA library (Edge Biosystems, Cat. 38356) by standard polymerase chain reaction (PCR) methodology employing the following primers: sense, 5′-GCCACCATGGACCT GGAAGCCTCGCTGC-3′; anti-sense, 5′-[…]-3′. The PCR reaction is performed in a final volume of 50 μL containing 5 μL of a 10× stock solution of PCR buffer, 1 μL of 10 mM dNTP mixture (200 μM final), 2 μl of 50 mM Mg(SO4) (2 mM final), 0.5 μL of 20 μM solutions of each primer (0.2 μM final), 5 μL of template cDNA containing 0.5 ng DNA, 0.5 μL of Platinum Taq High Fidelity DNA polymerase (Gibco Life Technologies) and 36 μL of H2O. […]
In order to generate cell lines stably expressing MCHR1, subclone the insert into the Xba I and Not I sites of pcDNA(+)-3.1-neomycin (Invitrogen). […] The G418-resistant colonies are further selected for MCHR1 expression by measuring MCH-stimulated Ca^2+ transients with a fluorometric imaging plate reader (FLIPR, Molecular Devices). […]
Binding of compounds to MCHR1 is assessed in a competitive binding assay employing ^125I-MCH, compound and clone 43 membranes. […] Non-specific binding is assessed in the presence of 0.1 μM unlabeled MCH. Bound ^125I-MCH is determined by placing sealed plates in a Microbeta Trilux (Perkin Elmer Life and Analytical Sciences Inc.) and counting after a 12 h delay. […]

Molecules are shown by their SMILES. Counter-ions that a name gives are not always drawn.

T1 sequence (Q99705 whole entry): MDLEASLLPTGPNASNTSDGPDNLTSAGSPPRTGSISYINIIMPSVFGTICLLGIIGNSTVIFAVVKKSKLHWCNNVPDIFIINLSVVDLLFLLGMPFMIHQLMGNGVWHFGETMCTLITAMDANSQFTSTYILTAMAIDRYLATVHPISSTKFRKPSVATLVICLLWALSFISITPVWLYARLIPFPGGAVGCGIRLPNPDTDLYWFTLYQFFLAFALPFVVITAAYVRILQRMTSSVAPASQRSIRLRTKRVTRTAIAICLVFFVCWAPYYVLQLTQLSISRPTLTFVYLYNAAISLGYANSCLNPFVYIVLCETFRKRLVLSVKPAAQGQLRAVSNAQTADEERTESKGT

Regarding `COc1cc(N2CCc3cc(-c4ccc(Cl)cc4)sc3C2=O)ccc1NC(=O)CN1CCCC1.Cl` [Example 25, N-{4-[2-(4-Chloro-phenyl)-7-oxo-4,7-dihydro-5H-thieno[2,3-c]pyridin-6-yl]-2-methoxy-phenyl}-2-pyrrolidin-1-yl-acetamide hydrochloride], the “average body weight reduction versus vehicle control” value in assay [1] is reported as “about 6 grams”.
The Ki is the equilibrium dissociation constant of an inhibitor or competing ligand from its target. Read a high Ki as lower affinity. As to `O=C(CN1CCCC1)Nc1ccc(-n2ccc3cc(-c4ccc(Cl)cc4)sc3c2=O)cc1` [Example 58, N-{4-[2-(4-Chloro-phenyl)-7-oxo-7H-thieno[2,3-c]pyridin-6-yl]-phenyl}-2-pyrrolidin-1-yl-acetamide, hydrochloride], the inhibitory constant (Ki) on MCHR1 was ~3 nM.

Values taken from US8263772B2, “MCH receptor antagonists” (Eli Lilly and Company, priority 2006, dated 2012).
